Assay results taken from patent US20260092074A1, “Annelated Pyridines as Steroidogenesis Inhibitors, Preparation Method and Use Thereof” (Guangzhou Vinnocent Pharmaceutical Limited, priority 2022, published 2026).

Columns and labels:
[1] = molecular target: T1, human CYP11B1 (Homo sapiens, UniProt P15538); assay: Inhibition of hCYP11B1 in transfected V79 cells; format: cell-based; settings: hamster V79 cells expressing human CYP11B1; substrate 11-deoxycortisol 200 nM
T1 construct: expressed in transfected cells
T1 sequence (P15538 25-503): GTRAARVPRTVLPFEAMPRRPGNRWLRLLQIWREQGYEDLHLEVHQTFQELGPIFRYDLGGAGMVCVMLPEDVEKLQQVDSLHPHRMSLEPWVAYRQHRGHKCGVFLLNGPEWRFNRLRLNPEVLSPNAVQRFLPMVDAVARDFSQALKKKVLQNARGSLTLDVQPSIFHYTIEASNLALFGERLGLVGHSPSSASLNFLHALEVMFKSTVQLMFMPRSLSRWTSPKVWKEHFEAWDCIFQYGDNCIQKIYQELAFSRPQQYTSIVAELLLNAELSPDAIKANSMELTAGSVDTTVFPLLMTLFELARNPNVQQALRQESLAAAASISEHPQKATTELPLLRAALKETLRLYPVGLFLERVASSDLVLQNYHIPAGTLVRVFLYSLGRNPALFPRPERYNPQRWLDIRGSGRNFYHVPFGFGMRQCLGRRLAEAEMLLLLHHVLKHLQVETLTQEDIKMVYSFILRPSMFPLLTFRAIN
Method in brief: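 V79 hamster cells stably expressing human CYP11B1 and rat NADPH-P450 reductase were preincubated with compounds for 2 h. 11-Deoxycortisol (200 nM) was then added as substrate for 30 min before ethyl acetate quench. Substrate and product were quantified by LC-MS/MS or HPLC at 260 nm, and IC50 was derived from percent inhibition.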

[2] = molecular target: T2, human CYP11B2 (Homo sapiens, UniProt P19099); assay: Inhibition of hCYP11B2 in transfected V79 cells; format: cell-based; settings: hamster V79 cells expressing human CYP11B2; substrate 11-deoxycorticosterone 200 nM
T2 construct: expressed in transfected cells
T2 sequence (P19099 25-503): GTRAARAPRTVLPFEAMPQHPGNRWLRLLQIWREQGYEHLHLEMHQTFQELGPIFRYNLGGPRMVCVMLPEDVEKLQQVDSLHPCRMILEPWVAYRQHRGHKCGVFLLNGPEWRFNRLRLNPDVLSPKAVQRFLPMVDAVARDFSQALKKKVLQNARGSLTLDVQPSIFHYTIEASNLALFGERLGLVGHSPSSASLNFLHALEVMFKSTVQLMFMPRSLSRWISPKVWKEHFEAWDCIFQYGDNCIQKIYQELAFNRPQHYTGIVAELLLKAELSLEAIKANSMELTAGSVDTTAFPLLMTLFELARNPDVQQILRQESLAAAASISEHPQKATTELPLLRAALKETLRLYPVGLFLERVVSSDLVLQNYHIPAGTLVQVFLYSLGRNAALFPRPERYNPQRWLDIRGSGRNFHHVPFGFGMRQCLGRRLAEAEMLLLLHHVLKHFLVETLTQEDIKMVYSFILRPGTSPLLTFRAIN
Method in brief: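 Hamster V79 cells stably co-expressing human CYP11B2 and rat NADPH-P450 reductase were pre-incubated with compounds for 2 hours, then given 200 nM 11-deoxycorticosterone for 30 minutes before ethyl acetate quench. Substrate and product were quantified by LC-MS/MS or HPLC at 260 nm, and IC50 was derived from percent inhibition.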

Row | SMILES | IC50 [1] | IC50 [2]
1 | O=S(=O)(c1ccc(O)nc1)N1CCSc2c(-c3cc4cc(Cl)ccc4o3)cncc21 [S54, 5-((8-(5-Chlorobenzofuran-2-yl)-2,3-dihydro-4H-pyrido[4,3-b][1,4]thiazin-4-yl)sulfonyl) pyridin-2-ol] | 549 nM | 16 nM
2 | Cn1ccc(S(=O)(=O)N2CCSc3c(-c4cc5cc(Cl)ccc5o4)cncc32)n1 [S56, 8-(5-Chlorobenzofuran-2-yl)-4-((1-methyl-1H-pyrazol-3-yl)sulfonyl)-3,4-dihydro-2H-pyrido[4,3-b][1,4]thiazine] | 41 nM | 0.5 nM
3 | CC(=O)Nc1nc(C)c(S(=O)(=O)N2CCSc3c(-c4cc5cc(Cl)ccc5o4)cncc32)s1 [S57, N-(5-((8-(5-Chlorobenzofuran-2-yl)-2,3-dihydro-4H-pyrido[4,3-b][1,4]thiazin-4-yl)sulfonyl)-4-methylthiazol-2-yl)acetamide] | 66 nM | 3.9 nM
4 | O=C1COc2ccc(S(=O)(=O)N3CCSc4c(-c5cc6cc(Cl)ccc6o5)cncc43)cc2N1 [S59, 6-((8-(5-Chlorobenzofuran-2-yl)-2,3-dihydro-4H-pyrido[4,3-b][1,4]thiazin-4-yl)sulfonyl)-2H-benzo[b][1,4]oxazin-3 (4H)-one] | 48 nM | 0.5 nM
5 | O=S(=O)(c1ccc(Cl)s1)N1CCSc2c(-c3cc4cc(Cl)ccc4o3)cncc21 [S60, 8-(5-Chlorobenzofuran-2-yl)-4-((5-chlorothiophen-2-yl)sulfonyl)-3,4-dihydro-2H-pyrido-[4,3-b][1,4]thiazine] | 54 nM | 0.7 nM
6 | O=S(=O)(C1CCNCC1)N1CCSc2c(-c3cc4cc(Cl)ccc4o3)cncc21 [S61, 8-(5-Chlorobenzofuran-2-yl)-4-(piperidin-4-ylsulfonyl)-3,4-dihydro-2H-pyrido[4,3-b][1, 4]thiazine] | 688 nM | 21.7 nM
7 | O=S(=O)(C1CNC1)N1CCSc2c(-c3cc4cc(Cl)ccc4o3)cncc21 [S62, 4-(Azetidin-3-ylsulfonyl)-8-(5-chlorobenzofuran-2-yl)-3,4-dihydro-2H-pyrido[4,3-b][1,4]thiazine] | 516 nM | 7.2 nM
8 | N#CN1CCC(S(=O)(=O)N2CCSc3c(-c4cc5cc(Cl)ccc5o4)cncc32)CC1 [S63, 4-((8-(5-Chlorobenzofuran-2-yl)-2,3-dihydro-4H-pyrido[4,3-b][1,4]thiazin-4-yl)sulfonyl) piperidine-1-carbonitrile] | 792 nM | 10 nM
9 | N#CN1CC(S(=O)(=O)N2CCSc3c(-c4cc5cc(Cl)ccc5o4)cncc32)C1 [S64, 3-((8-(5-Chlorobenzofuran-2-yl)-2,3-dihydro-4H-pyrido[4,3-b][1,4]thiazin-4-yl)sulfonyl) azetidine-1-carbonitrile] | 755 nM | 4.5 nM
10 | N#CC12CC(S(=O)(=O)N3CCSc4c(-c5cc6cc(Cl)ccc6o5)cncc43)(C1)C2 [S65, 3-((8-(5-Chlorobenzofuran-2-yl)-2,3-dihydro-4H-pyrido[4,3-b][1,4]thiazin-4-yl)sulfonyl)bicyclo[1.1.1]pentane-1-carbonitrile] | 783 nM | 5 nM
11 | O=S(=O)(C1CC2(COC2)C1)N1CCSc2c(-c3cc4cc(Cl)ccc4o3)cncc21 [S66, 4-((2-Oxaspiro[3.3]heptan-6-yl)sulfonyl)-8-(5-chlorobenzofuran-2-yl)-3,4-dihydro-2H-pyrido[4,3-b][1,4]thiazine] | 587 nM | 3.8 nM
12 | N#CN1CC2(CC(S(=O)(=O)N3CCSc4c(-c5cc6cc(Cl)ccc6o5)cncc43)C2)C1 [S67, 6-((8-(5-chlorobenzofuran-2-yl)-2,3-dihydro-4H-pyrido[4,3-b][1,4]thiazin-4-yl)sulfonyl)-2-azaspiro[3.3]heptane-2-carbonitrile] | 603 nM | 3.2 nM
13 | N#Cc1ccc(-c2cncc3c2SCCN3S(=O)(=O)C2CN(C(=O)c3cccc(F)c3)C2)cc1 [S69, 4-(4-((1-(3-Fluorobenzoyl)azetidin-3-yl)sulfonyl)-3,4-dihydro-2H-pyrido[4,3-b][1,4]thiazin-8-yl)benzonitrile] | 73 nM | 1.3 nM
14 | N#Cc1ccc(C(=O)N2CC(S(=O)(=O)N3CCSc4c(-c5ccc(C#N)cc5)cncc43)C2)cc1 [S70, 4-(4-((1-(4-Cyanobenzoyl)azetidin-3-yl)sulfonyl)-3,4-dihydro-2H-pyrido[4,3-b][1,4]thiazin-8-yl)benzonitrile] | 49 nM | 1.4 nM
15 | N#Cc1ccc(-c2cncc3c2SCCN3S(=O)(=O)C2CN(C(=O)c3cccc(C#N)c3)C2)cc1 [S71, 3-(3-((8-(4-Cyanophenyl)-2,3-dihydro-4H-pyrido[4,3-b][1,4]thiazin-4-yl)sulfonyl)azetidine-1-carbonyl)benzonitrile] | 349 nM | 14 nM

Stronger by IC50 [1], values ahead:

Row | IC50 [1] | IC50 [2] | SMILES
16 | 10.6 nM | 0.2 nM | Cn1cc(S(=O)(=O)N2CCSc3c(-c4cc5cc(Cl)ccc5o4)cncc32)cn1 [S55, 8-(5-Chlorobenzofuran-2-yl)-4-((1-methyl-1H-pyrazol-4-yl)sulfonyl)-3,4-dihydro-2H-pyrido[4,3-b][1,4]thiazine]
17 | 27 nM | 2 nM | CC(=O)N1CCc2cc(S(=O)(=O)N3CCSc4c(-c5cc6cc(Cl)ccc6o5)cncc43)ccc21 [S58, 1-(5-((8-(5-Chlorobenzofuran-2-yl)-2,3-dihydro-4H-pyrido[4,3-b][1,4]thiazin-4-yl)sulfonyl)indolin-1-yl)ethan-1-one]
18 | 22 nM | 0.8 nM | N#Cc1ccc(-c2cncc3c2SCCN3S(=O)(=O)C2CN(C(=O)c3ccc(F)cc3)C2)cc1 [S68, 4-(4-((1-(4-Fluorobenzoyl)azetidin-3-yl)sulfonyl)-3,4-dihydro-2H-pyrido[4,3-b][1,4]thiazin-8-yl)benzonitrile]
19 | 23 nM | 2.1 nM | COc1ccc(C(=O)N2CC(S(=O)(=O)N3CCSc4c(-c5ccc(C#N)cc5)cncc43)C2)cc1 [S72, 4-(4-((1-(4-Methoxybenzoyl)azetidin-3-yl)sulfonyl)-3,4-dihydro-2H-pyrido[4,3-b][1,4]thiazin-8-yl)benzonitrile]
20 | 18 nM | 0.3 nM | COc1cccc(C(=O)N2CC(S(=O)(=O)N3CCSc4c(-c5ccc(C#N)cc5)cncc43)C2)c1 [S73, 4-(4-((1-(3-Methoxybenzoyl)azetidin-3-yl)sulfonyl)-3,4-dihydro-2H-pyrido[4,3-b][1,4]thiazin-8-yl)benzonitrile]
21 | 22 nM | 1.7 nM | N#Cc1ccc(-c2cncc3c2SCCN3S(=O)(=O)C2CN(S(=O)(=O)c3ccc(F)cc3)C2)cc1 [S74, 4-(4-((1-((4-Fluorophenyl)sulfonyl)azetidin-3-yl)sulfonyl)-3,4-dihydro-2H-pyrido[4,3-b][1,4]thiazin-8-yl)benzonitrile]
22 | 12 nM | 0.7 nM | N#Cc1ccc(-c2cncc3c2SCCN3S(=O)(=O)C2CN(S(=O)(=O)c3cccc(F)c3)C2)cc1 [S75, 4-(4-((1-((3-Fluorophenyl)sulfonyl)azetidin-3-yl)sulfonyl)-3,4-dihydro-2H-pyrido[4,3-b][1,4]thiazin-8-yl)benzonitrile]
23 | 24 nM | 0.8 nM | N#Cc1ccc(-c2cncc3c2SCCN3S(=O)(=O)C2CN(S(=O)(=O)c3ccc(C#N)cc3)C2)cc1 [S76, 4-((3-((8-(4-Cyanophenyl)-2,3-dihydro-4H-pyrido[4,3-b][1,4]thiazin-4-yl)sulfonyl)azetidin-1-yl)sulfonyl)benzonitrile]
24 | 32 nM | 0.8 nM | N#Cc1ccc(-c2cncc3c2SCCN3S(=O)(=O)C2CN(S(=O)(=O)c3cccc(C#N)c3)C2)cc1 [S77, 3-((3-((8-(4-Cyanophenyl)-2,3-dihydro-4H-pyrido[4,3-b][1,4]thiazin-4-yl)sulfonyl)azetidin-1-yl)sulfonyl)benzonitrile]
25 | 38 nM | 1.2 nM | COc1ccc(S(=O)(=O)N2CC(S(=O)(=O)N3CCSc4c(-c5ccc(C#N)cc5)cncc43)C2)cc1 [S78, 4-(4-((1-((4-Methoxyphenyl)sulfonyl)azetidin-3-yl)sulfonyl)-3,4-dihydro-2H-pyrido[4,3-b][1,4]thiazin-8-yl)benzonitrile]
